Data taken from PubChem BioAssay AID248 (DTP/NCI, 2004).
Inconclusive results and toxic doses are left out. Rule as the data show it: active = T/C of 150% or more; inactive = T/C below 125%.

Tested on: L1210 leukemia ip in BDF1 mice, survival T/C
Assay: NCI In Vivo Anticancer Drug Screen. Data for tumor model L1210 Leukemia (intraperitoneal) in B6D2F1 (BDF1) mice
Settings: endpoint: mean survival time, higher = longer survival
In short: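 Transplantable tumor model; survival measured in treated vs vehicle control mice. Value = treated/control.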

[1] = dose: 100.0 mg/kg/injection, schedule: Q04DX002 (ip), vehicle: Klucel (hydroxypropylcellulose) (HPC)
[2] = dose: 200.0 mg/kg/injection, schedule: Q04DX002 (ip), vehicle: Klucel (hydroxypropylcellulose) (HPC)
[3] = dose: 400.0 mg/kg/injection, schedule: Q04DX002 (ip), vehicle: Klucel (hydroxypropylcellulose) (HPC)
[4] = dose: 50.0 mg/kg/injection, schedule: Q01DX009 (ip), vehicle: Klucel (hydroxypropylcellulose) (HPC)
[5] = dose: 100.0 mg/kg/injection, schedule: Q01DX009 (ip), vehicle: Klucel (hydroxypropylcellulose) (HPC)
[6] = dose: 200.0 mg/kg/injection, schedule: Q01DX009 (ip), vehicle: Klucel (hydroxypropylcellulose) (HPC)
[7] = dose: 100.0 mg/kg/injection, schedule: Q01DX001 (ip), vehicle: Klucel (hydroxypropylcellulose) (HPC)
[8] = dose: 150.0 mg/kg/injection, schedule: Q01DX001 (ip), vehicle: saline
[9] = dose: 100.0 mg/kg/injection, schedule: Q04DX003 (ip), vehicle: Klucel (hydroxypropylcellulose) (HPC)
[10] = dose: 200.0 mg/kg/injection, schedule: Q04DX003 (ip), vehicle: Klucel (hydroxypropylcellulose) (HPC)
[11] = dose: 400.0 mg/kg/injection, schedule: Q01DX009 (ip), vehicle: Klucel (hydroxypropylcellulose) (HPC)
[12] = dose: 400.0 mg/kg/injection, schedule: Q04DX003 (ip), vehicle: Klucel (hydroxypropylcellulose) (HPC)
[13] = dose: 100.0 mg/kg/injection, schedule: Q01DX009 (ip), vehicle: saline with Tween-80
[14] = dose: 100.0 mg/kg/injection, schedule: Q04DX003 (ip), vehicle: saline
[15] = dose: 100.0 mg/kg/injection, schedule: Q01DX001 (ip), vehicle: other
[16] = dose: 100.0 mg/kg/injection, schedule: Q01DX009 (ip), vehicle: saline
[17] = dose: 100.0 mg/kg/injection, schedule: Q04DX003 (ip), vehicle: saline with Tween-80
[18] = dose: 200.0 mg/kg/injection, schedule: Q04DX003 (ip), vehicle: saline with Tween-80
[19] = dose: 400.0 mg/kg/injection, schedule: Q04DX003 (ip), vehicle: saline with Tween-80
[20] = dose: 200.0 mg/kg/injection, schedule: Q04DX003 (ip), vehicle: saline
[21] = dose: 400.0 mg/kg/injection, schedule: Q04DX003 (ip), vehicle: saline

Measured: T/C

COc1cc(/C=N/N=C(\N)N[N+](=O)[O-])cc(OC)c1OC
inactive: dose: 100.0 mg/kg/injection, schedule: Q01DX001 (ip), vehicle: saline with Tween-80 114 % of control | dose: 200.0 mg/kg/injection, schedule: Q01DX001 (ip), vehicle: saline with Tween-80 97 % of control | dose: 400.0 mg/kg/injection, schedule: Q01DX001 (ip), vehicle: saline with Tween-80 96 % of control

O=C(Nc1ccccc1Cl)Oc1ccc(-c2ccccc2)cc1
inactive: [1] 95 % of control | [2] 95 % of control | [3] 106 % of control

Cc1n(CCBr)c([N+](=O)[O-])c[n+]1C1N=C(c2ccccc2)c2cc(Cl)ccc2N(C)C1=O (centres undefined)
inactive: [4] 89 % of control | [5] 89 % of control | [6] 86 % of control

CCCCCC(=O)N1CCCCC1CC (centres undefined)
inactive: [1] 92 % of control | [2] 92 % of control

NNC(=O)c1ccc(Cl)cc1Nc1ccc(Cl)cc1
inactive: dose: 25.0 mg/kg/injection, schedule: Q01DX009 (ip), vehicle: Klucel (hydroxypropylcellulose) (HPC) 93 % of control | [4] 95 % of control | [7] 97 % of control | [5] 91 % of control

CN(C)CCc1ccc(Nc2ccnc3cc(Cl)ccc23)cc1
inactive: dose: 75.0 mg/kg/injection, schedule: Q01DX001 (ip), vehicle: saline 101 % of control | [8] 98 % of control | dose: 300.0 mg/kg/injection, schedule: Q01DX001 (ip), vehicle: saline 95 % of control

O=C(/C=C/C(=O)Oc1ccc(Cl)cc1Cl)Oc1ccc(Cl)cc1Cl
inactive: [5] 94 % of control | [9] 111 % of control | [6] 95 % of control | [10] 100 % of control | [11] 97 % of control | [12] 100 % of control

N#Cc1cccn1-c1cccc2c(-n3cccc3C#N)cccc12
inactive: dose: 25.0 mg/kg/injection, schedule: Q04DX002 (ip), vehicle: Klucel (hydroxypropylcellulose) (HPC) 101 % of control | dose: 50.0 mg/kg/injection, schedule: Q04DX002 (ip), vehicle: Klucel (hydroxypropylcellulose) (HPC) 97 % of control | [1] 101 % of control

O=[N+]([O-])C(c1ccccc1)C(C/C(=N/O)c1ccccc1)c1ccccc1 (centres undefined)
inactive: [1] 100 % of control | [2] 92 % of control | [3] 96 % of control

O=C1C[C@@H]2OCC=C3C[N+]4([O-])CC[C@]56c7ccccc7N1[C@H]5[C@H]2[C@H]3C[C@@H]64 (some centres undefined)
inactive: [8] 106 % of control

Cc1cc(OCC(=O)O)c(Cl)cc1Cl
inactive: dose: 50.0 mg/kg/injection, schedule: Q01DX009 (ip), vehicle: saline with Tween-80 92 % of control | [13] 99 % of control

OC1C2CCN(CC2)C1CN1CC=C(c2ccccc2)CC1 (centres undefined)
inactive: dose: 25.0 mg/kg/injection, schedule: Q04DX003 (ip), vehicle: saline 104 % of control | dose: 50.0 mg/kg/injection, schedule: Q04DX003 (ip), vehicle: saline 101 % of control | [14] 98 % of control

Cc1ccc(-n2c(O)c(C=N)c(=O)[nH]c2=O)cc1
inactive: [13] 97 % of control | dose: 200.0 mg/kg/injection, schedule: Q01DX009 (ip), vehicle: saline with Tween-80 93 % of control

CC1(C)c2ccccc2C(C)(C)[N+]1(C)C
inactive: [15] 101 % of control

CCC(=O)OC(CC=C(C)C)(c1ccccc1)C(C)CN(C)C (centres undefined)
inactive: [16] 100 % of control

O=c1[nH]c(=O)n(C2CCCCO2)cc1F (centres undefined)
inactive: dose: 2.5 mg/kg/injection, schedule: Q01DX009 (ip), vehicle: saline 100 % of control | dose: 5.0 mg/kg/injection, schedule: Q01DX009 (ip), vehicle: saline 104 % of control | dose: 10.0 mg/kg/injection, schedule: Q01DX009 (ip), vehicle: saline 94 % of control | dose: 20.0 mg/kg/injection, schedule: Q01DX009 (ip), vehicle: saline 96 % of control | dose: 40.0 mg/kg/injection, schedule: Q01DX009 (ip), vehicle: saline 100 % of control | dose: 80.0 mg/kg/injection, schedule: Q01DX009 (ip), vehicle: saline 96 % of control | dose: 160.0 mg/kg/injection, schedule: Q01DX009 (ip), vehicle: saline 98 % of control

O=c1[nH]c(C(F)(F)F)c(CCCCc2ccccc2)c(=O)[nH]1
inactive: dose: 50.0 mg/kg/injection, schedule: Q01DX001 (ip), vehicle: Klucel (hydroxypropylcellulose) (HPC) 105 % of control | [7] 94 % of control | dose: 200.0 mg/kg/injection, schedule: Q01DX001 (ip), vehicle: Klucel (hydroxypropylcellulose) (HPC) 90 % of control

CSCCCNC(=O)c1csc(CCNC(=O)c2ccccc2)n1
inactive: [17] 100 % of control | [18] 100 % of control | [19] 91 % of control

CCCC(C)NNC(C)CCC (centres undefined)
inactive: dose: 75.0 mg/kg/injection, schedule: Q01DX001 (ip), vehicle: acetone 96 % of control | dose: 75.0 mg/kg/injection, schedule: Q01DX001 (ip), vehicle: other 114 % of control | dose: 150.0 mg/kg/injection, schedule: Q01DX001 (ip), vehicle: acetone 101 % of control

O=C(O)CCC(=O)c1cccc2ccccc12
inactive: [16] 96 % of control | [14] 105 % of control | dose: 200.0 mg/kg/injection, schedule: Q01DX009 (ip), vehicle: saline 112 % of control | [20] 94 % of control | [21] 103 % of control

O=[N+]([O-])C(Br)(c1ccccc1)S(=O)(=O)Cc1ccccc1 (centres undefined)
inactive: [5] 95 % of control | [9] 100 % of control | [6] 101 % of control | [10] 95 % of control | [12] 102 % of control

COc1ccc(/C(=N/Nc2ccccc2)C(C)C(O)(C(F)(F)F)C(F)(F)F)cc1 (centres undefined)
inactive: [4] 91 % of control | [5] 92 % of control | [9] 98 % of control | [6] 89 % of control | [10] 90 % of control

CC(=O)C(CCC(=O)O)(CCC(=O)O)c1ccccc1
inactive: dose: 30.0 mg/kg/injection, schedule: Q01DX Z (ip), vehicle: other 100 % of control | dose: 60.0 mg/kg/injection, schedule: Q01DX Z (ip), vehicle: other 101 % of control | [9] 92 % of control | dose: 120.0 mg/kg/injection, schedule: Q01DX Z (ip), vehicle: other 95 % of control | [10] 97 % of control | dose: 240.0 mg/kg/injection, schedule: Q01DX Z (ip), vehicle: other 95 % of control | [12] 102 % of control

O=S1(=O)C(Cc2ccccc2)CCC1Cc1ccccc1 (centres undefined)
inactive: [9] 102 % of control | [10] 94 % of control | [12] 102 % of control

Cc1ccc(Nc2nc(N)nc(CNc3ccc(Cl)cc3)n2)cc1
inactive: [17] 89 % of control | [18] 97 % of control | [19] 89 % of control

CC/C(=N/Nc1ccc([N+](=O)[O-])cc1[N+](=O)[O-])c1ccccc1
inactive: [15] 96 % of control | dose: 200.0 mg/kg/injection, schedule: Q01DX001 (ip), vehicle: other 111 % of control | dose: 400.0 mg/kg/injection, schedule: Q01DX001 (ip), vehicle: other 91 % of control

CC(C)(C)NC(=O)NCc1cccc(Cl)c1
inactive: [1] 100 % of control | [2] 107 % of control | [3] 96 % of control

O=C(Nc1cccc(C(F)(F)F)c1)OCCOc1ccc(Br)cc1
inactive: [5] 98 % of control | [6] 96 % of control | [11] 92 % of control

CN(C)C1C(=O)C(C(=O)NCNC(CCS(C)=O)C(=O)O)=C(O)C2(O)C(=O)C3=C(O)c4c(O)cccc4C(C)(O)C3CC12 (centres undefined)
inactive: dose: 100.0 mg/kg/injection, schedule: Q01DX001 (ip), vehicle: saline 91 % of control | [14] 95 % of control | dose: 200.0 mg/kg/injection, schedule: Q01DX001 (ip), vehicle: saline 91 % of control | [20] 92 % of control | dose: 400.0 mg/kg/injection, schedule: Q01DX001 (ip), vehicle: saline 91 % of control | [21] 87 % of control
